# US6391303B1, “Methods and compositions for inducing oral tolerance in mammals” (Emisphere Technologies, Inc., priority 1996, dated 2002)
# How the values were obtained:
# [1] = tested on: anti-HA (influenza) IgG antibodies; experiment: ELISA for serum anti-HA IgG after single oral dose of influenza vaccine with delivery agent; assay type: in vivo, BALB/c mice; details: single oral dose 15 μg influenza vaccine A/Johannesburg/39/94 (H3N2) + 500 mg/kg delivery agent
# Protocol: Ten BALB/c mice were administered a single oral dose of 15 μg of influenza antigen [influenza vaccine A/Johannesburg/39/94 (H3N2)] per mouse with 500 mg/kg of E352.
# 1. Coat plates with HA antigen, 10 μg/mL in carbonate buffer.
# 3. Block with Superblock™ or 1/10 diluted Bovine Serum Albumin (BSA).
# 4. Add 100 μL per well of diluent (Superblock™ or 1/15 diluted BSA) to all except the top row.
# 5. In the first row, add 150 μL per well of 1/100 diluted test serum in duplicate and serially dilute 3× down the plate. Leave 2 empty wells as background.
# 6. Incubate 2 hours at room temperature.
# 8. To each well, add 100 μl of IgG isotype-specific anti-mouse alkaline-phosphatase conjugated antibody (diluted with 4% PEG 6000).20. Incubate overnight at 4/C.
# 10. Add 100 μL per well of p-nitrophenyl phosphate (pNPP) substrate solution and incubate in the dark with shaking for 30 minutes.
# 11. Read and record OD405 after subtracting the background absorbance.
# [2] = tested on: Experimental Autoimmune Encephalomyelitis (EAE)
# Protocol: Two days after the (last) oral dose, all groups were challenged in the footpad with 0.05 mg of MBP emulsified with Complete Freund's Adjuvant containing Mycobacterium tuberculosis H37Ra, 4 mg/ml. Clinical signs of disease were observed starting on Day 11 after the challenge and rated on a scale of 0 (no disease) to 5 (death).
# [3] = single dose MBP + delivery agent versus one or five doses of MBP alone
smiles,measurement,setting,value
"O=C(O)CCCc1ccc(NC(=O)c2ccccc2O)cc1 [E352, 4-[4-(N-salicyloyl)]aminophenyl butyric acid]",serum anti-HA IgG titer relative to control fed only influenza antigen,[1],significantly suppressed the production of anti-influenza antibodies
same,Mean Disease Index per group (highest mean score multiplied by the duration of symptoms),[2]; [3],suppressed these disease parameters significantly
same,mean Maximal Score per group,[2]; [3],suppressed these disease parameters significantly
same,mean day of onset of paralysis,"[2]; single oral dose 1.0 mg MBP alone or with delivery agent, day after challenge",16 days
same,clinical disease (Mean Clinical Score) of EAE,"[2]; single oral dose 1.0 mg MBP with delivery agent, footpad challenge 0.05 mg MBP/CFA, scale 0 to 5",suppression of clinical disease
